From patent US20230416245A1, “ADENOSINE ANALOGS FOR THE TREATMENT OF DISEASE” (BIOINTERVENE, INC., priority 2020, published 2023) come the findings set out here.

The assay deals with ADORA3 (Homo sapiens (Human), UniProt P0DMS8). The assay can be described thus: Intracellular calcium release assay (FLIPR). Format: cell-based. The following applies: for EC50: CHO-K1 cells, Fluo-4, top concentration 10 μM, read-out: Cell Calcium Assay EC50; for Cell Calcium Efficacy (%): percentage of the response to NECA. In short, it runs like this:
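Cells stably expressing ADORA3 (20,000/well, 16–20 h) were loaded with Fluo-4 Direct plus 2.5 mM probenecid for 50 min at 37 °C and 10 min at RT. Compounds (10-point, 3-fold series) were added on FLIPR and the Max–Min fluorescence taken. Activation % was set against high-agonist and DMSO wells, with variable-slope EC50 and efficacy relative to NECA.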
In general terms: Calcium flux is commonly read through the fluorescence of an indicator in the cells.

The structures appear in SMILES notation.

Chain of ADORA3 (P0DMS8 whole entry): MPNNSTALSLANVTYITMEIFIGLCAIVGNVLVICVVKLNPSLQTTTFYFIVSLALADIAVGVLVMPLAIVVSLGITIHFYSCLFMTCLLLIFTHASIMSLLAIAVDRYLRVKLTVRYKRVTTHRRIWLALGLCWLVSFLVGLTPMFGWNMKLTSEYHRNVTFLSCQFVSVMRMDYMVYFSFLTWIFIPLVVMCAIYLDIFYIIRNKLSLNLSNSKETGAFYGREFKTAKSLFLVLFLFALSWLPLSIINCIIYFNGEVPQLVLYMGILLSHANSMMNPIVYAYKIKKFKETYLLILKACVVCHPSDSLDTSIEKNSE

As for `O[C@@H]1[C@H](O)[C@@H]2C[C@@H]2[C@H]1n1cnc2c(NCC(F)F)cc(Cl)nc21` [Compound 40, (1R,2R,3S,4R,5S)-4-(5-chloro-7-((2,2-difluoroethyl)amino)-3H-imidazo[4,5-b]pyridin-3-yl)bicyclo[3.1.0]hexane-2,3-diol], the EC50 was 6.1 nM and the “Cell Calcium Efficacy (%)” value was found to be 55.9%.

With `Cc1c(Cl)nc2c(ncn2[C@H]2[C@H](O)[C@H](O)[C@@H]3C[C@@H]32)c1NCC(F)F` [Compound 60, (1R,2R,3S,4R,5S)-4-(5-chloro-7-((2,2-difluoroethyl)amino)-6-methyl-3H-imidazo[4,5-b]pyridin-3-yl)bicyclo[3.1.0]hexane-2,3-diol], the EC50 is greater than 10000 nM and the “Cell Calcium Efficacy (%)” value amounted to 10%.

With `CCNc1cc(C#CC2CC2)nc2c1ncn2[C@H]1[C@H](O)[C@H](O)[C@@H]2C[C@@H]21` [Compound 46, (1R,2R,3S,4R,5S)-4-(5-(cyclopropylethynyl)-7-(ethylamino)-3H-imidazo[4,5-b]pyridin-3-yl)bicyclo[3.1.0]hexane-2,3-diol], the EC50 was no less than 10000 nM and the “Cell Calcium Efficacy (%)” value came to 4.8%.

On to `O[C@@H]1[C@H](O)[C@@H]2C[C@@H]2[C@H]1n1cnc2c(NCC(F)F)nc(Cl)nc21` [Compound 35, (1R,2R,3S,4R,5S)-4-(2-chloro-6-((2,2-difluoroethyl)amino)-9H-purin-9-yl)bicyclo[3.1.0]hexane-2,3-diol], for which the EC50 came out at 4.7 nM and the “Cell Calcium Efficacy (%)” value came out at 46.8%.

In general, EC50 refers to the concentration needed to bring the measured effect to its halfway point.
